Reference: ChEMBL document CHEMBL1201862, “PubChem BioAssay data set” (2004)
Activity calls are given as the source filed them.

What was measured:
Vero [1] = assay: cells; type: functional; details: Chlorocebus sabaeus
[2] = target: Melanin-concentrating hormone receptor 1 (Homo sapiens, UniProt Q99705); assay: Late-stage fluorescence-based counterscreen for antagonists of the G-protein coupled receptor 7 (GPR7): cell-based dose response assay to identify antagonists of the melanin-concentrating hormone receptor 1 (MCHR1) Set 6.; type: functional
Chain of Melanin-concentrating hormone receptor 1 (Q99705 whole entry): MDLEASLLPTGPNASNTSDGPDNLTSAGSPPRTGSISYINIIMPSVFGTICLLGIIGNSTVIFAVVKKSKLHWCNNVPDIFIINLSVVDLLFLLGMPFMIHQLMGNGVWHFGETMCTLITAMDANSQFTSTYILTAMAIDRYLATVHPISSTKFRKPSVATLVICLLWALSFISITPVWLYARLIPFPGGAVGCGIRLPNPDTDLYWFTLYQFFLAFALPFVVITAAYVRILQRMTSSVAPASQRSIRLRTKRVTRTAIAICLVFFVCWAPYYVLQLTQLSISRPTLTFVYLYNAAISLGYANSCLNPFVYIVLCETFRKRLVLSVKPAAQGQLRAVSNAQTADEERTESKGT

[3] = target: T1, Methionyl-tRNA synthetase, putative (Trypanosoma brucei brucei, UniProt Q38C91); type: functional, Trypanosoma brucei brucei strain 927/4 GUTat10.1
T1 sequence (Q38C91 whole entry): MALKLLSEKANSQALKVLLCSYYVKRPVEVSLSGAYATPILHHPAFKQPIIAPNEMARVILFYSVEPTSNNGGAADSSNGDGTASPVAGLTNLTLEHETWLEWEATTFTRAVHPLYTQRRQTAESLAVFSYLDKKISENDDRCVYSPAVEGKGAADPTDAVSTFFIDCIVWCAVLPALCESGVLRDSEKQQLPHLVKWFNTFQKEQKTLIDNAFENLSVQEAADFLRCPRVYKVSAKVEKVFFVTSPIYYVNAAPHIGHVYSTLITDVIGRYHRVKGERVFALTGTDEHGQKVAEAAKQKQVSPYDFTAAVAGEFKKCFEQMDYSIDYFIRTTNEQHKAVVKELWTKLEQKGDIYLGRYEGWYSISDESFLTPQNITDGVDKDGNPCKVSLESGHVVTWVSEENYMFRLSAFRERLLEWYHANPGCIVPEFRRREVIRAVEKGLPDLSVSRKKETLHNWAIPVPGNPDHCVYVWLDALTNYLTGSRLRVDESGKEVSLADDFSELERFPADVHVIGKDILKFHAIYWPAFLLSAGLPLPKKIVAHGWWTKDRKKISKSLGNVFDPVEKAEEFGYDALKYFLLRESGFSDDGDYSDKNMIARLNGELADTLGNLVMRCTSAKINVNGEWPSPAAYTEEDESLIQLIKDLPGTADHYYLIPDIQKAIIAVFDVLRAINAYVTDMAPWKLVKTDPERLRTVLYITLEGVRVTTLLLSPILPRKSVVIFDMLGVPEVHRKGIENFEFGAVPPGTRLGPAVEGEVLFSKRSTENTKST

[4] = Counterscreen for inhibitors of Trypanosoma brucei methionyl tRNA synthetase (MetRS): Luminescence-based cell-based high throughput dose response assay to identify compounds that are cytotoxic to Jurkat human T lymphocyte cells.; type: functional
[5] = target: T1, Methionyl-tRNA synthetase, putative; type: functional, Trypanosoma brucei brucei strain 927/4 GUTat10.1; remark: listed apart in the source
[6] = target: SWI/SNF-related matrix-associated actin-dependent regulator of chromatin subfamily A member 2 (Homo sapiens, UniProt P51531); assay: Luminescence-based cell-based high throughput dose response assay to identify activators of the function of SWI/SNF related, matrix associated, actin dependent regulator of chromatin, subfamily a, member 2 (SMARCA2, BRM).; type: functional
Chain of SWI/SNF-related matrix-associated actin-dependent regulator of chromatin subfamily A member 2 (P51531 whole entry): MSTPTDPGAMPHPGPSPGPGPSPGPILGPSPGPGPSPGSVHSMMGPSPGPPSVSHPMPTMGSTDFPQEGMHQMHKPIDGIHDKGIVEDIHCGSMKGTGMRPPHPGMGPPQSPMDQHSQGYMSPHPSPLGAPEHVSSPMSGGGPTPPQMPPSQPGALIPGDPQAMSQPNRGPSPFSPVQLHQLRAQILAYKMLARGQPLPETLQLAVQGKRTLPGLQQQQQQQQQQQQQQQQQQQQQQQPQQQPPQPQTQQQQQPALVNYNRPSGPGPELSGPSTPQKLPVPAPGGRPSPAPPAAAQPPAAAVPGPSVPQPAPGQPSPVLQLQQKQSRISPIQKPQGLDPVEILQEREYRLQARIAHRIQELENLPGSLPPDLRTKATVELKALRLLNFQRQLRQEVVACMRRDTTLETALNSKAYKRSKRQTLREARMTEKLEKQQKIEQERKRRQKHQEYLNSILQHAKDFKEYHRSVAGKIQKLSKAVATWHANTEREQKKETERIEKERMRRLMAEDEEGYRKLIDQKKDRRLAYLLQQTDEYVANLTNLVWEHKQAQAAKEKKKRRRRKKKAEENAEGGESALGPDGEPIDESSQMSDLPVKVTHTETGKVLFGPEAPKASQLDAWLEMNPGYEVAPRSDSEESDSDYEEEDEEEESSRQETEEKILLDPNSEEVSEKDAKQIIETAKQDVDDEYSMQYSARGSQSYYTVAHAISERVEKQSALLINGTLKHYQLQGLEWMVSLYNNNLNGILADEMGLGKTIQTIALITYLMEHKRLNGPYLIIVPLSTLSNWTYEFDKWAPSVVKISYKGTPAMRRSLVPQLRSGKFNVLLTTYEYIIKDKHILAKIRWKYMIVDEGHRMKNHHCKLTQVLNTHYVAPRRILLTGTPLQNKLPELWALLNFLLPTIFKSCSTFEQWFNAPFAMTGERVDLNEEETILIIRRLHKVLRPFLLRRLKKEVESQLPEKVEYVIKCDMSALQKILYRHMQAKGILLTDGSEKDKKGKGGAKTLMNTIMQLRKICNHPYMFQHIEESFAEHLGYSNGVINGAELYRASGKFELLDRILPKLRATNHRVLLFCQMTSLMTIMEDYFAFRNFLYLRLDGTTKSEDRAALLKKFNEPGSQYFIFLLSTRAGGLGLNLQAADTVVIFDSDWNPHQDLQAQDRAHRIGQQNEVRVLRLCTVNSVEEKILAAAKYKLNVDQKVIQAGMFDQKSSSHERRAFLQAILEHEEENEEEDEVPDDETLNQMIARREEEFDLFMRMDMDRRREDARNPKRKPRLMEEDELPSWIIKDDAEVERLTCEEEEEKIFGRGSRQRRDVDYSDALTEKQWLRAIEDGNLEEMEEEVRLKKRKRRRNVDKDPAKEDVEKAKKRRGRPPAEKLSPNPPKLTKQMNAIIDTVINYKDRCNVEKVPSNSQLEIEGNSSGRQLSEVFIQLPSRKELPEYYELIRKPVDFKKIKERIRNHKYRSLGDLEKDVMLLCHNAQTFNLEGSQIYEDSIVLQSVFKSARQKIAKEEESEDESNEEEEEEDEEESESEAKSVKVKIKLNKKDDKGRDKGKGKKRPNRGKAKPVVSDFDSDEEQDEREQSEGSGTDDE

[7] = Counterscreen for activators of the function of SWI/SNF related, matrix associated, actin dependent regulator of chromatin, subfamily a, member 2 (SMARCA2, BRM): Luminescence-based cell-based high throughput dose response assay to identify non-selective compounds using the VP16 reporter assay.; type: functional
HEK293 [8] = assay: NOD1 signaling inhibitors, primary screen, cell-based, luminescence, uHTS (AID 1578); type: functional; details: Homo sapiens
HEK293 [9] = assay: cells; type: functional, cell-based; details: Homo sapiens
HEK293 [10] = assay: cells; type: functional, cell-based; details: Homo sapiens; remark: listed apart in the source
[11] = target: Nucleotide-binding oligomerization domain-containing protein 2 (Homo sapiens, UniProt Q9HC29); assay: NOD2 signaling inhibitors, cell-based, luminescence, uHTS, HEK293 (AID 1566); type: functional
Chain of Nucleotide-binding oligomerization domain-containing protein 2 (Q9HC29 whole entry, the tested form may be a part): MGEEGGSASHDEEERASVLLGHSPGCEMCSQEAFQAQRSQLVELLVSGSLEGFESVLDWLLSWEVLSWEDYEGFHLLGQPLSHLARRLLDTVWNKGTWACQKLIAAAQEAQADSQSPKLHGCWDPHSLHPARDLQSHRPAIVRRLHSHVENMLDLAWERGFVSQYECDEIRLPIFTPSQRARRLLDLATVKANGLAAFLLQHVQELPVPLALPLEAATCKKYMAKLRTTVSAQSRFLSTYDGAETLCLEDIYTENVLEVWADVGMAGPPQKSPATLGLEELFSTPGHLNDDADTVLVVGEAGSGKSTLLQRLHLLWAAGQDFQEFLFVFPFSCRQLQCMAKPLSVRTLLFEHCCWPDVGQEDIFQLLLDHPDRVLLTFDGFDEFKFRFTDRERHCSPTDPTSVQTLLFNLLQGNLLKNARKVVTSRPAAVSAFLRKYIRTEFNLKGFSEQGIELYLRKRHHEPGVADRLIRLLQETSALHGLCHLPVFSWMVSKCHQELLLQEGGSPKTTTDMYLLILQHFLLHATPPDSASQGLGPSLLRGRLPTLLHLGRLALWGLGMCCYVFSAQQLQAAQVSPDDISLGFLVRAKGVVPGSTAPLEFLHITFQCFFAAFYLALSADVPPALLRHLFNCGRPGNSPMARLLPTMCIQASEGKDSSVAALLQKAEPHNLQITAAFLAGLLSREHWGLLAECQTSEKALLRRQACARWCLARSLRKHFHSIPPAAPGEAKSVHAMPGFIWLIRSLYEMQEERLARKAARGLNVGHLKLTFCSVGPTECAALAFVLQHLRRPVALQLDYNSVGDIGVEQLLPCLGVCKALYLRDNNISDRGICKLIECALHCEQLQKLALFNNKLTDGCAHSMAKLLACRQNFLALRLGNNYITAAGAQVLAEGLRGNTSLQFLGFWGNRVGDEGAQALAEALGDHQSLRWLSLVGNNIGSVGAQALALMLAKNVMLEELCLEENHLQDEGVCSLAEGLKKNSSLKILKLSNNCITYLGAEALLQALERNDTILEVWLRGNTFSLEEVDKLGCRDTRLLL

HEK293 [12] = assay: NOD2 signaling inhibitors in MDP-stimulated cells, cell-based, uHTS, luminescence (AID 2001); type: functional; details: Homo sapiens
HEK293 [13] = assay: cells; type: functional, cell-based; details: Homo sapiens; remark: listed apart in the source
[14] = target: Beta-2 adrenergic receptor (Homo sapiens, UniProt P07550); assay: beta2AR agonists driving receptor internalization, dose response, cell-based, FAP fluorogen, flow cytometry, cherry pick 1 (AID 588763); type: functional
Chain of Beta-2 adrenergic receptor (P07550 whole entry): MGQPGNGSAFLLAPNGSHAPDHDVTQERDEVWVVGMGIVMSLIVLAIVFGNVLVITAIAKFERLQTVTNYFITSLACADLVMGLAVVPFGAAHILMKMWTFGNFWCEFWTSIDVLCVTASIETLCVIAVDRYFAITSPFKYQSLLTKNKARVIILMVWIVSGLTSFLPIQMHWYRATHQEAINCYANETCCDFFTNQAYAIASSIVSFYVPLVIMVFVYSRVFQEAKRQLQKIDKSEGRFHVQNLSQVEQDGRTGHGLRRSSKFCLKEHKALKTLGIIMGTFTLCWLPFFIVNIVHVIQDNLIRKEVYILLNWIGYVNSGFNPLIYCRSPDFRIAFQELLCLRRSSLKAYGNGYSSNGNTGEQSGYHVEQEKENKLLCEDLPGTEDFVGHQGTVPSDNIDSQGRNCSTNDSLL

HEK293 [15] = assay: inhibitors of LMP1-driven NF-kB reporter, dose response, cell-based, HEK293, luciferase, cherry-pick (AID 588343); type: functional; details: Homo sapiens
cells [16] = type: functional, cell-based
[17] = target: Nuclear receptor subfamily 0 group B member 1 (Homo sapiens, UniProt P51843); type: functional, cell-based;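 also: HEK293T cells transfected with SF-1 and DAX-1 plus StAR promoter luciferase reporter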
Chain of Nuclear receptor subfamily 0 group B member 1 (P51843 whole entry): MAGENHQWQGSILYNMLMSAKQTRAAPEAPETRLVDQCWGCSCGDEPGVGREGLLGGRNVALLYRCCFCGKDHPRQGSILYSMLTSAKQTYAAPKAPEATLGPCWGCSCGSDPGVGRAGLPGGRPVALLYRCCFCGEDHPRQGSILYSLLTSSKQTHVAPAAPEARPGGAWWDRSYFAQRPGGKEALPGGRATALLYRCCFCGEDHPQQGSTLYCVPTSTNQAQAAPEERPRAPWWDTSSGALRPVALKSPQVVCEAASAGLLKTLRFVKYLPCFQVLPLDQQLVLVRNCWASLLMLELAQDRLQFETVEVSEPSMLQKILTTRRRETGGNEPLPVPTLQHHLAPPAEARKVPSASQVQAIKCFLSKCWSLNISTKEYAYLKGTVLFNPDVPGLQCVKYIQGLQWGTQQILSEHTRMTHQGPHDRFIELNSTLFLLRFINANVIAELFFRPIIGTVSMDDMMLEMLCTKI

[18] = A549 cell cytotoxicity, dose response, cytotoxicity control, plate reader, cherry-pick, antagonist series (AID 743412); type: functional, cell-based
[19] = LGR2 antagonists, dose response, cell-based, HEK293, CRE-luciferase reporter, cherry pick, set 2 (AID 743343); type: functional;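 also: transfected cells were stimulated with diluted bursicon conditioned medium after compound addition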
[20] = MC4R antagonists, dose response, counter-screen for LGR2 antagonist project, cell-based, plate reader, cherry pick (AID 743444); type: functional;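 also: transfected HEK 293 cells stimulated with alpha-MSH peptide; potency of inhibitors of the alpha-MSH evoked signal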
[21] = HEK293 cell cytotoxicity, dose response, cytotoxicity control, plate reader, cherry-picked samples (AID 743446); type: functional, cell-based
[22] = target: 26S proteasome non-ATPase regulatory subunit 14 (Homo sapiens, UniProt O00487); assay: inhibition of proteasome subunit RPN11 – biochemical, fluorescence polarization, uHTS hits, confirmation (AID 602368); type: functional
Chain of 26S proteasome non-ATPase regulatory subunit 14 (O00487 whole entry): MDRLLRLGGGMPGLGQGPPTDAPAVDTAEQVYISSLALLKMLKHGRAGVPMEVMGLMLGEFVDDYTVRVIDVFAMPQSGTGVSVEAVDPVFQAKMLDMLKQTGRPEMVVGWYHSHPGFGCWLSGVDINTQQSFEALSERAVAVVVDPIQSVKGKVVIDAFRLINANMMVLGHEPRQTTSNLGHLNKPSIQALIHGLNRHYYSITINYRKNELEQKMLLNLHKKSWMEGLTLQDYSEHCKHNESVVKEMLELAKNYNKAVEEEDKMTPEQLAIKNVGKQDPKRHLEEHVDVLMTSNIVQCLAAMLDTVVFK

[23] = target: 72 kDa type IV collagenase (Homo sapiens, UniProt P08253); assay: Dose Response validation of uHTS RPN11 inhibitor hits using a MMP-2 Fluorescence assay.; type: functional
Chain of 72 kDa type IV collagenase (P08253 whole entry): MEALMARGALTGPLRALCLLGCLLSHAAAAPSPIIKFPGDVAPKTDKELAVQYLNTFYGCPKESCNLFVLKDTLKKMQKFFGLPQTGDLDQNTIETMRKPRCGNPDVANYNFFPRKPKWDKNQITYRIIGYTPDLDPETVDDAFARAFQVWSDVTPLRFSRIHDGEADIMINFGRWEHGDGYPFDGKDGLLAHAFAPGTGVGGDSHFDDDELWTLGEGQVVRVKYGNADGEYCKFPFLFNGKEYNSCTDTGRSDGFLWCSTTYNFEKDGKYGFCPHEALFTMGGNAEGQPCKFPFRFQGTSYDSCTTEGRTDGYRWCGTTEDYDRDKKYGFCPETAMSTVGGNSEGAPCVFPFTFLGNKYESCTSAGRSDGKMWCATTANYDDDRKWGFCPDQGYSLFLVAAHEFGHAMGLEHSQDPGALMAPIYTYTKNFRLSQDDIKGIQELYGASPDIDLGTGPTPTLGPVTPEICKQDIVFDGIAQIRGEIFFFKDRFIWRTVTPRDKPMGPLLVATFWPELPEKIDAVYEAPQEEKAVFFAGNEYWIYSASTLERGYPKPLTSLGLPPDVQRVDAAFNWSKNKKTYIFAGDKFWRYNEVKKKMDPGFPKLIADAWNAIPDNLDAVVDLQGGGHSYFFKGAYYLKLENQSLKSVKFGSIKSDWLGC

Prothrombin = Prothrombin (Bos taurus, UniProt P00735); assay: thrombin inhibition, dose response, biochemical, fluorescence polarization, uHTS hits (AID 602369); type: functional
Vero [24] = assay: cells; type: functional, cell-based; details: Chlorocebus sabaeus
[25] = inhibitors of firefly luciferase expression or activity, dose response, H4 neuroglioma cells, luminescence (AID 1990); type: functional, cell-based
cells [26] = type: functional, cell-based; remark: listed apart in the source
[27] = Luminescence Cell-Based Dose Response HTS to Identify Inhibitors of 5'UTR Stem-Loop Driven Prion Protein mRNA Translation in H4 Neuroglioblastoma Cells. [Related pubchem assays: 1827 (Project Summary), 1813 (Primary HTS)]; type: functional
[28] = inhibitors of SNCA 5'UTR-driven reporter translation, confirmation, H4 neuroglioma cells, luminescence (AID 1988); type: functional, cell-based
cells [29] = type: functional, cell-based; remark: listed apart in the source
[30] = target: T2, Microphthalmia-associated transcription factor (Homo sapiens, UniProt O75030); assay: TRPM1 promoter luciferase signal decrease, dose response, MITF inhibitor project, cell-based, SK-MEL-5, cherry-picked, set 3 (AID 493073); type: functional
T2 sequence (O75030 whole entry): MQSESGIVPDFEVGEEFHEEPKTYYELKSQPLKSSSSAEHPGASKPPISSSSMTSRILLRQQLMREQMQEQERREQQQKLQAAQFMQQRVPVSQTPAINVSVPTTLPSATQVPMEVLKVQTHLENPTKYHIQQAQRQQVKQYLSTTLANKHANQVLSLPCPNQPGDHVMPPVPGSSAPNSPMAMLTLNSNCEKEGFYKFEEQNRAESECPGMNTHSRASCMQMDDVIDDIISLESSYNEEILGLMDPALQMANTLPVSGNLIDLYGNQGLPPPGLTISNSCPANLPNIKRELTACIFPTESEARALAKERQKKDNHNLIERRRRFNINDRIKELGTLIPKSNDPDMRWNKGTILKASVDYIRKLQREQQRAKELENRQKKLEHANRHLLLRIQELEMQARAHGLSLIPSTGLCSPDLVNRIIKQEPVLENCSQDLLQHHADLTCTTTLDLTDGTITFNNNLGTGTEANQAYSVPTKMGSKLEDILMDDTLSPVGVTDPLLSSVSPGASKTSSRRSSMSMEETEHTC

INS1 = assay: beta cell apoptosis inhibitors, cytokine rescue, dose response, luminescence, retest (AID 449756); type: functional, cell-based; details: Rattus norvegicus;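 also: cell death triggered by IL-1 beta plus TNF-alpha plus IFN-gamma mixture; protective hits raise ATP signal compared with cytokine alone wells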
A-375 = assay: A375 melanoma cell viability reduction, dose response, counter-screen for MITF modulator project, cherry-pick samples, set 2 (AID 540335); type: functional, cell-based; details: Homo sapiens
Escherichia coli = assay: microbe, parasite or virus in culture

C=CCN1C(=O)/C(=C/c2ccc(Br)s2)C(=O)NC1=S
CC50 (Vero [1]): 24.2 µM (active)

COC(=O)c1nn(-c2ccc(C(C)C)cc2)c(=O)c(Oc2ccc(OC)cc2)c1Cl
IC50 [2]: 3.57 µM (active)

COc1ccc(CNC(=O)CSc2n[nH]c3c4cc(C)ccc4nc-3n2)cc1
IC50 [3]: 11 µM (inactive)
IC50 [4]: 83.3 µM (inactive)
IC50 [5]: 0.72 µM (active)

O=C(NC(=S)Nc1ccc(Br)cn1)c1cccnc1
EC50 [6]: > 91.2 µM (inactive)
EC50 [7]: > 91.2 µM (inactive)

O=S(=O)(Nc1cccc(-c2cn3cccnc3n2)c1)c1ccc(-c2ccccc2)cc1
EC50 (HEK293 [8]): 8.6 µM (active)
IC50 (HEK293 [9]): 6.52 µM (active)
IC50 (HEK293 [10]): 14.5 µM (active)
EC50 [11]: 10.3 µM (active)
IC50 (HEK293 [12]): 6.98 µM (active)
IC50 (HEK293 [13]): > 20 µM (inactive)
EC50 [14]: 4.33 µM (active)

COC(=O)c1ccc2nc(-c3ccc4c(c3)OCO4)cn2c1
AC50 (HEK293 [15]): 1.57 µM (active)
IC50 (cells [16]): > 67.5 µM (inactive)
IC50 [17]: > 0.0925 µM (active)
AC50 [18]: > 52 µM (inactive)
AC50 [19]: 2.13 µM (active)
AC50 [20]: 2.22 µM (active)
AC50 [21]: > 52 µM (inactive)

O=C(N/N=C/c1ccccc1)c1ccc(CN2C(=O)c3cccc4cccc2c34)cc1
IC50 [22]: 10.7 µM (active)
IC50 [23]: > 100 µM (inactive)
IC50 (Prothrombin): 69.8 µM (active)

Cc1ccc(S(=O)(=O)n2cccc2/C=C/[N+](=O)[O-])cc1
IC50 (Vero [24]): > 25 µM (active)
CC50 (Vero [1]): 9.49 µM (active)

Cc1cc(C)n(CCC(=O)N/N=C/c2c(O)ccc3ccccc23)n1
EC50 [25]: 11 µM (active)
EC50 (cells [26]): 9.7 µM (active)
EC50 [27]: 11 µM (active)
EC50 [28]: 8.69 µM (active)
EC50 (cells [29]): > 350 µM (not active)
AC50 [30]: 45.1 µM (active)
AC50 (INS1): 3.53 µM (active)
AC50 (A-375): 52.3 µM (active)
AC50 (Escherichia coli): 40.1 µM (active)
